The source made the active and inactive calls. The calls are words filed in the database; no cut-off is given here.
Assays:
[1] = target: T1, DNA topoisomerase 1 (Homo sapiens) (UniProt P11387); experiment: Inhibition of human topoisomerase-1 assessed as inhibition of relaxation of supercoiled pBR322 plasmid DNA at 100 uM measured after 1 hr by ethidium bromide staining based agarose gel electrophoresis relative to control
T1 sequence (whole entry): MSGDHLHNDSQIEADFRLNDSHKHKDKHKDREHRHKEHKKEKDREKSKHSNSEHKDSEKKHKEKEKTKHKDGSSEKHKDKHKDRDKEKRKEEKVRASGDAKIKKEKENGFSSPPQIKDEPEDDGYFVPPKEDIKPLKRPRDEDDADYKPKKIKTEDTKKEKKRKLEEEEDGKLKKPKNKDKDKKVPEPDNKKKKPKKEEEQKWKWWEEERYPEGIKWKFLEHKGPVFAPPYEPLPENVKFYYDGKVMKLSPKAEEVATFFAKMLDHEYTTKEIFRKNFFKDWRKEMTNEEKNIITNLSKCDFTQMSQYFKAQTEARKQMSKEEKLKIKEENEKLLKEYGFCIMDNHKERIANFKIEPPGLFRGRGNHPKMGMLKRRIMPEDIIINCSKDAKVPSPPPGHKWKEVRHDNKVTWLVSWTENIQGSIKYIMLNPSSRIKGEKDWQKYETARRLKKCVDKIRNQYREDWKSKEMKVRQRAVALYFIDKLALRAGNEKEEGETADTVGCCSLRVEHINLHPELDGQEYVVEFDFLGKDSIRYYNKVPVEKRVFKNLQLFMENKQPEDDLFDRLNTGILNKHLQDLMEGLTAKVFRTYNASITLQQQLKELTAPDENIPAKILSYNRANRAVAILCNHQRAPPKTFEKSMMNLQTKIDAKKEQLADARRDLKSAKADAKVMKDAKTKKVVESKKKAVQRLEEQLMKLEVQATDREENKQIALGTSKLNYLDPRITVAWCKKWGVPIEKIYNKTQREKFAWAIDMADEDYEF

[2] = target: T1, DNA topoisomerase 1 (Homo sapiens); experiment: Inhibition of human topoisomerase-1 assessed as inhibition of relaxation of supercoiled pBR322 plasmid DNA at 20 uM measured after 1 hr by ethidium bromide staining based agarose gel electrophoresis relative to control
[3] = target: DNA topoisomerase 2-alpha (Homo sapiens) (UniProt P11388); experiment: Inhibition of human topoisomerase-2 alpha assessed as inhibition of relaxation of supercoiled pBR322 plasmid DNA at 100 uM measured after 1 hr by ethidium bromide staining based agarose gel electrophoresis relative to control
[4] = target: DNA topoisomerase 2-alpha (Homo sapiens) (UniProt P11388); experiment: Inhibition of human topoisomerase-2 alpha assessed as inhibition of relaxation of supercoiled pBR322 plasmid DNA at 20 uM measured after 1 hr by ethidium bromide staining based agarose gel electrophoresis relative to control
[5] = Antiproliferative activity against human T47D cells measured after 72 hrs by CCK8 assay; format: functional, cell-based
[6] = Antiproliferative activity against human DU145 cells measured after 72 hrs by CCK8 assay; format: functional, cell-based; conditions: DU-145, 72 h
[7] = Antiproliferative activity against human HCT15 cells measured after 72 hrs by CCK8 assay; format: functional, cell-based; conditions: HCT-15, 72 h
[8] = Antiproliferative activity against human MCF7 cells measured after 72 hrs by CCK8 assay; format: functional, cell-based; conditions: MCF7, 72 h
[9] = target: DNA topoisomerase 2-alpha (Homo sapiens) (UniProt P11388); experiment: Poison activity at topoisomerase-2 alpha in human HCT15 cells assessed as DNA damage by measuring DNA tail length at 5 uM measured after 24 hrs by alkaline comet assay; format: cell-based; conditions: HCT-15
[10] = target: DNA topoisomerase 2-alpha (Homo sapiens) (UniProt P11388); experiment: Poison activity at topoisomerase-2 alpha in human HCT15 cells assessed as DNA damage by measuring DNA tail length at 10 uM measured after 24 hrs by alkaline comet assay; format: cell-based; conditions: HCT-15
[11] = target: DNA topoisomerase 2-alpha (Homo sapiens) (UniProt P11388); experiment: Inhibition of topoisomerase-2 alpha catalytic activity in human HCT15 cells assessed as appearance of free protein band at 50 uM measured after 2 hrs by Western blot analysis; format: cell-based; conditions: HCT-15
[12] = Cell cycle arrest in human HCT15 cells assessed as decrease in cyclin D1 level measured after 20 hrs; format: functional, cell-based; conditions: HCT-15
[13] = Cell cycle arrest in human HCT15 cells assessed as increase in p27kip1 level measured after 20 hrs; format: functional, cell-based; conditions: HCT-15
[14] = Cell cycle arrest in human HCT15 cells assessed as accumulation at G1 phase at 10 uM by DAPI staining based cell analyzer; format: functional; conditions: HCT-15, TDE = time-dependent effect
[15] = Cell cycle arrest in human HCT15 cells assessed as decrease in cyclin D1 level at 10 uM; format: functional, cell-based; conditions: HCT-15, TDE = time-dependent effect
[16] = Cell cycle arrest in human HCT15 cells assessed as increase in p27kip1 level at 10 uM; format: functional, cell-based; conditions: HCT-15, TDE = time-dependent effect
HCT-15 [17] = experiment: Induction of apoptosis in human HCT15 cells assessed as increase in cleaved PARP level measured after 24 hrs by Western blot analysis; format: functional, cell-based
HCT-15 [18] = experiment: Induction of apoptosis in human HCT15 cells assessed as increase in bax level measured after 24 hrs by Western blot analysis; format: functional, cell-based
HCT-15 [19] = experiment: Induction of apoptosis in human HCT15 cells assessed as decrease in bcl-2 level measured after 24 hrs by Western blot analysis; format: functional, cell-based
[20] = Cell cycle arrest in human HCT15 cells assessed as accumulation at G1 phase at 1 uM after 20 hrs by DAPI staining-based cell analyzer (reference value: 40%); format: functional; conditions: HCT-15
[21] = Cell cycle arrest in human HCT15 cells assessed as accumulation at G1 phase at 3 uM after 20 hrs by DAPI staining-based cell analyzer (reference value: 40%); format: functional; conditions: HCT-15
[22] = Cell cycle arrest in human HCT15 cells assessed as accumulation at G1 phase at 10 uM after 20 hrs by DAPI staining-based cell analyzer (reference value: 40%); format: functional; conditions: HCT-15
[23] = Cell cycle arrest in human HCT15 cells assessed as accumulation at S phase at 1 uM after 20 hrs by DAPI staining-based cell analyzer (reference value: 34%); format: functional; conditions: HCT-15
[24] = Cell cycle arrest in human HCT15 cells assessed as accumulation at S phase at 3 uM after 20 hrs by DAPI staining-based cell analyzer (reference value: 34%); format: functional; conditions: HCT-15
[25] = Cell cycle arrest in human HCT15 cells assessed as accumulation at S phase at 10 uM after 20 hrs by DAPI staining-based cell analyzer (reference value: 34%); format: functional; conditions: HCT-15
[26] = Cell cycle arrest in human HCT15 cells assessed as accumulation at G2/M phase at 1 uM after 20 hrs by DAPI staining-based cell analyzer (reference value: 13%); format: functional; conditions: HCT-15
[27] = Cell cycle arrest in human HCT15 cells assessed as accumulation at G2/M phase at 3 uM after 20 hrs by DAPI staining-based cell analyzer (reference value: 13%); format: functional; conditions: HCT-15
[28] = Cell cycle arrest in human HCT15 cells assessed as accumulation at G2/M phase at 10 uM after 20 hrs by DAPI staining-based cell analyzer (reference value: 13%); format: functional; conditions: HCT-15
[29] = Cell cycle arrest in human HCT15 cells assessed as accumulation at G1 phase at 10 uM after 5 hrs by DAPI staining-based cell analyzer (reference value: 61%); format: functional; conditions: HCT-15
[30] = Cell cycle arrest in human HCT15 cells assessed as accumulation at G1 phase at 10 uM after 10 hrs by DAPI staining-based cell analyzer (reference value: 61%); format: functional; conditions: HCT-15
[31] = Cell cycle arrest in human HCT15 cells assessed as accumulation at G1 phase at 10 uM after 15 hrs by DAPI staining-based cell analyzer (reference value: 61%); format: functional; conditions: HCT-15
[32] = Cell cycle arrest in human HCT15 cells assessed as accumulation at G1 phase at 10 uM after 20 hrs by DAPI staining-based cell analyzer (reference value: 61%); format: functional; conditions: HCT-15
[33] = Cell cycle arrest in human HCT15 cells assessed as accumulation at S phase at 10 uM after 5 hrs by DAPI staining-based cell analyzer (reference value: 10%); format: functional; conditions: HCT-15
[34] = Cell cycle arrest in human HCT15 cells assessed as accumulation at S phase at 10 uM after 10 hrs by DAPI staining-based cell analyzer (reference value: 10%); format: functional; conditions: HCT-15
[35] = Cell cycle arrest in human HCT15 cells assessed as accumulation at S phase at 10 uM after 15 hrs by DAPI staining-based cell analyzer (reference value: 10%); format: functional; conditions: HCT-15
[36] = Cell cycle arrest in human HCT15 cells assessed as accumulation at S phase at 10 uM after 20 hrs by DAPI staining-based cell analyzer (reference value: 10%); format: functional; conditions: HCT-15
[37] = Cell cycle arrest in human HCT15 cells assessed as accumulation at G2/M phase at 10 uM after 5 hrs by DAPI staining-based cell analyzer (reference value: 13%); format: functional; conditions: HCT-15
[38] = Cell cycle arrest in human HCT15 cells assessed as accumulation at G2/M phase at 10 uM after 10 hrs by DAPI staining-based cell analyzer (reference value: 13%); format: functional; conditions: HCT-15
[39] = Cell cycle arrest in human HCT15 cells assessed as accumulation at G2/M phase at 10 uM after 15 hrs by DAPI staining-based cell analyzer (reference value: 13%); format: functional; conditions: HCT-15

Chain of DNA topoisomerase 2-alpha (Homo sapiens) (P11388 whole entry): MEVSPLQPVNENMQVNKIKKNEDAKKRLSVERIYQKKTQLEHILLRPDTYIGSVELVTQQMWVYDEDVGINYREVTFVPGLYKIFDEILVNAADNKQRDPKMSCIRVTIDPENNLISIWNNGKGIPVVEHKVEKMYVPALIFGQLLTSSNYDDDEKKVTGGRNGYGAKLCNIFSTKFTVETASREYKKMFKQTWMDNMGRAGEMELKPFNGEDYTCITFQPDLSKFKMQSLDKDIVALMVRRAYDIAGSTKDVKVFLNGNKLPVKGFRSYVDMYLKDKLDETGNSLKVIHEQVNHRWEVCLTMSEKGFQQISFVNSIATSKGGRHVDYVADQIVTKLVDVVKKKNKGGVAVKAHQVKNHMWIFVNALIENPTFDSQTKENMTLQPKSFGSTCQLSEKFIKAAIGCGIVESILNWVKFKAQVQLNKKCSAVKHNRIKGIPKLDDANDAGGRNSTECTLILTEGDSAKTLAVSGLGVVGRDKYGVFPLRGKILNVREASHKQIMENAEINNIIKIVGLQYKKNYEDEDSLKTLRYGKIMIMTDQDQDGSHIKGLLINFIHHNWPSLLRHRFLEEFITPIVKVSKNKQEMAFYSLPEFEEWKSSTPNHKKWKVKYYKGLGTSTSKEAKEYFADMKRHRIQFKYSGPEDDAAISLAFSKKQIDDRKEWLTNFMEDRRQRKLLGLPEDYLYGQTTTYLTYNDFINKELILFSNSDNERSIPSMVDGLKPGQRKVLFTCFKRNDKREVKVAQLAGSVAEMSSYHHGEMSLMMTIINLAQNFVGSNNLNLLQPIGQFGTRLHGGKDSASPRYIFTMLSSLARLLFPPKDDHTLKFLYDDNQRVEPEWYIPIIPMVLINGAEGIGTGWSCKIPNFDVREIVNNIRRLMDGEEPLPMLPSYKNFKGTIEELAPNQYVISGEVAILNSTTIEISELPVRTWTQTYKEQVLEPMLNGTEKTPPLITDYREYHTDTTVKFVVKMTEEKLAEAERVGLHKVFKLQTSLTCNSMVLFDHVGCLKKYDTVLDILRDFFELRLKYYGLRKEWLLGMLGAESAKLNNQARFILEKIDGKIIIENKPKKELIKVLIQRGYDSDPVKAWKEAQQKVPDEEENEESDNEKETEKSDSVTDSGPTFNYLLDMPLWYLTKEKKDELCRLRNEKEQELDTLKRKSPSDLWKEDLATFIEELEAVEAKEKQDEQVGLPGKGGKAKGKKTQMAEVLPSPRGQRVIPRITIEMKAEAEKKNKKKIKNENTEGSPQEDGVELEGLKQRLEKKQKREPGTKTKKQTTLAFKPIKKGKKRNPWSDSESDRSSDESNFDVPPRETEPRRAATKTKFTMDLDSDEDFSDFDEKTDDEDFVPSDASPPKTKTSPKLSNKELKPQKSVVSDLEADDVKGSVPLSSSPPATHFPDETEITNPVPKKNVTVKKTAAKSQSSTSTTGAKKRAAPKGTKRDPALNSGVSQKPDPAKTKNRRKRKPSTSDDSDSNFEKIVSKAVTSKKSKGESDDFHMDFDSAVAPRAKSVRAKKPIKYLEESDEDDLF

Structure (SMILES): CCOc1ccc2c(c1)Oc1cc(O)ccc1C21c2ccccc2C(=O)N1/N=C/c1ccccc1[N+](=O)[O-] (centres undefined)
- inhibition [1]: 35.6%
- inhibition [2]: 14.8%
- inhibition [3]: 62.4%
- inhibition [4]: 52.7%
- IC50 [5]: > 50000 nM
- IC50 [6]: 1430 nM
- IC50 [7]: 2400 nM
- IC50 [8]: 11400 nM
- Activity [9]: 7.72 pixel
- Activity [10]: 8.29 pixel
- inhibition [11]: Active
- Activity [12]: Dose-dependent effect
- Activity [13]: Dose-dependent effect
- Activity [14]: Tde
- Activity [15]: Tde
- Activity [16]: Tde
- Activity (HCT-15 [17]): Dose-dependent effect
- Activity (HCT-15 [18]): Dose-dependent effect
- Activity (HCT-15 [19]): Dose-dependent effect
- Activity [20]: 45%
- Activity [21]: 48%
- Activity [22]: 55%
- Activity [23]: 28%
- Activity [24]: 24%
- Activity [25]: 20%
- Activity [26]: 14%
- Activity [27]: 11%
- Activity [28]: 11 to 12%
- Activity [29]: 64%
- Activity [30]: 67%
- Activity [31]: 68%
- Activity [32]: 70%
- Activity [33]: 8%
- Activity [34]: 8%
- Activity [35]: 8%
- Activity [36]: 7%
- Activity [37]: 11%
- Activity [38]: 12%
- Activity [39]: 11%

From ChEMBL document CHEMBL3877252, “Fluorescein hydrazones: A series of novel non-intercalative topoisomerase IIα catalytic inhibitors induce G1 arrest and apoptosis in breast and colon cancer cells” (Eur J Med Chem, 2017)
